According to patent US20110251068A1, “PARASITIC PLANT CONTROL AGENT AND PARASITIC PLANT CONTROL METHOD” (OSAKA UNIVERSITY, priority 2008, published 2011):

What was measured:
Assay type in all cases: in vivo
Orobanche minor [1] = assay: Germination rate of Orobanche minor seeds in the presence of enzyme inhibitors (GR24-induced); conditions: for influence on germination of Orobanche minor: applied concurrently with GR24 0.1 mg/L, observed after four days (FIG. 8); for germination rate: Orobanche minor seeds, with GR24 0.1 mg/L, four days after application (FIG. 8)
Excerpt: (§1) Surfaces of seeds of Orobanche minor and Striga gesnerioides were sterilized by use of an aqueous solution containing 1% SDS and 5% sodium hypochlorite. Thereafter, the seeds were washed five times by use of sterile distilled water. Subsequently, the seeds were subjected to suction filtration and then naturally dried. GF/A glass filter paper of Φ 47 mm was spread on a laboratory dish, a GF/D glass disk of 1 cm was placed on the GF/A glass filter paper, and approximately 50 grains of the seeds were sown on the GF/D glass disk. 1.5 mL of sterile water was placed in the laboratory dish, and conditioning was carried out in a dark place at 23° C. for seven days. The GF/D glass disk was taken out of the laboratory dish on the eighth day after the beginning of conditioning and then placed on new GF/A glass filter paper. 1.5 mL of a germination stimulant GR24 (0.1 mg/L) was applied to the seeds of Orobanche minor, so as to induce its germination. A root extract of cowpea (CP) was applied to the seeds of Striga gesnerioides, so as to induce its germination. Note that concurrently with GR24 or the root extract of cowpea, nojirimycin, deoxynojirimycin, or deoxygalactonojirimycin was applied to the seeds. Note that nojirimycin is a typical β-glucosidase activity inhibitor, deoxynojirimycin is a typical α-glucosidase activity inhibitor, and deoxygalactonojirimycin is a typical galactosidase activity inhibitor. Whether or not germination occurred was observed by microscopic observation four days after application of GR24 or the root extract of cowpea (CP) and the like to the seeds.

Striga gesnerioides [2] = assay: Selective inhibition of germination: parasitic plant Striga gesnerioides; conditions: with root extract of cowpea, four days (FIG. 13)
Excerpt: (§2) It was examined whether or not germination inhibition caused by inhibition of gentianose metabolism was a selective phenomenon with respect to a parasitic plant. Note that nojirimycin was used as a typical gentianose metabolism inhibitor. Note also that Orobanche minor and Striga gesnerioides were used as typical parasitic plants and Trifolium pratense and Arabidopsis thaliana were used as typical non-parasitic plants. The following description specifically discusses how the examination was carried out. Surfaces of seeds of Orobanche minor, Striga gesnerioides, Arabidopsis thaliana, and Trifolium pratense were sterilized by use of an aqueous solution containing 1% SDS and 5% sodium hypochlorite. Thereafter, the seeds were washed five times by use of sterile distilled water. Subsequently, the seeds were subjected to suction filtration and then naturally dried. GF/A glass filter paper of Φ 47 mm was spread on a laboratory dish, a GF/D glass disk of 1 cm was placed on the GF/A glass filter paper, and approximately 50 grains of the seeds were sown on the GF/D glass disk. 1.5 mL of sterile water was placed in the laboratory dish, and conditioning was carried out in a dark place at 23° C. for seven days. The GF/D glass disk was taken out of the laboratory dish on the eighth day after the beginning of conditioning and then placed on new GF/A glass filter paper. […]

Striga gesnerioides [3] = assay: Germination rate of Striga gesnerioides seeds in the presence of nojirimycin (induced by root extract of cowpea); conditions: for germination rate: Striga gesnerioides seeds, rate without nojirimycin taken as 100%, cowpea root extract, four days (FIG. 10)
Excerpt: as §1

Orobanche minor [4] = assay: Recovery of germination inhibition effect by addition of glucose; conditions: Orobanche minor seeds, GR24 0.1 mg/L, nojirimycin with glucose 10 mM, four days (FIG. 9)
Protocol: The following description specifically discusses how the examination was carried out. Surfaces of seeds of Orobanche minor were sterilized by use of an aqueous solution containing 1% SDS and 5% sodium hypochlorite. Thereafter, the seeds were washed five times by use of sterile distilled water. Subsequently, the seeds were subjected to suction filtration and then naturally dried. GF/A glass filter paper of Φ 47 mm was spread on a laboratory dish, a GF/D glass disk of 1 cm was placed on the GF/A glass filter paper, and approximately 50 grains of the seeds were sown on the GF/D glass disk. 1.5 mL of sterile water was placed in the laboratory dish, and conditioning was carried out in a dark place at 23° C. for seven days. The GF/D glass disk was taken out of the laboratory dish on the eighth day after the beginning of conditioning and then placed on new GF/A glass filter paper. 1.5 mL of a germination stimulant GR24 (0.1 mg/L) was applied to the seeds, so as to induce its germination. Note that concurrently with GR24, nojirimycin or a mixture of nojirimycin and glucose (glucose concentration: 10 mM) was added to the seeds. Whether or not germination occurred was observed by microscopic observation four days after application of GR24 and the like to the seeds.

Trifolium pratense = assay: Selective inhibition of germination: non-parasitic plant Trifolium pratense; conditions: only nojirimycin, no germination inducer, four days (FIG. 13)
Excerpt: as §2

Arabidopsis thaliana = assay: Selective inhibition of germination: non-parasitic plant Arabidopsis thaliana; conditions: only nojirimycin, no germination inducer, four days (FIG. 13)
Excerpt: as §2

Orobanche minor [5] = assay: Selective inhibition of germination: parasitic plant Orobanche minor; conditions: with GR24 0.1 mg/L, four days (FIG. 13)
Excerpt: as §2

SMILES | influence on germination of Orobanche minor (Orobanche minor [1]) | inhibition of germination of Striga gesnerioides (parasitic plant) (Striga gesnerioides [2]) | germination rate (Striga gesnerioides [3]; 1 μM) | germination rate (Striga gesnerioides [3]; 10 μM) | germination rate (Striga gesnerioides [3]; 50 μM) | germination rate (Striga gesnerioides [3]; 100 μM) | germination rate (Striga gesnerioides [3]; 1 mM) | influence on germination of Striga gesnerioides (Striga gesnerioides [3]; applied concurrently with root extract of cowpea, observed after four days (FIG. 10)) | germination recovery effect of glucose versus germination inhibition effect of nojirimycin (Orobanche minor [4]) | inhibition of germination of Trifolium pratense (non-parasitic plant) (Trifolium pratense) | germination rate (Orobanche minor [1]; concentration of 1 μM) | germination rate (Orobanche minor [1]; concentration of 10 μM) | germination rate (Orobanche minor [1]; concentration of not less than 25 μM) | inhibition of germination of Arabidopsis thaliana (non-parasitic plant) (Arabidopsis thaliana) | inhibition of germination of Orobanche minor (parasitic plant) (Orobanche minor [5])
OC[C@H]1NC[C@H](O)[C@@H](O)[C@H]1O [deoxygalactonojirimycin] | no influence on germination | – | – | – | – | – | – | – | – | – | – | – | – | – | –
OC[C@H]1NC[C@H](O)[C@@H](O)[C@@H]1O [deoxynojirimycin] | no influence on germination | – | – | – | – | – | – | – | – | – | – | – | – | – | –
OC[C@H]1NC(O)[C@H](O)[C@@H](O)[C@@H]1O (some centres unmarked) [nojirimycin] | inhibited germination | effectively inhibited germination | approximately 24.3% | ~7.5% | ~6.2% | ~0% | ~0% | inhibited germination | recovered by glucose | did not inhibit germination | approximately 20% | approximately 10% | approximately 0% | did not inhibit germination | effectively inhibited germination
